Data from ChEMBL document CHEMBL1255497, “Azole resistance profile of amino acid changes in Aspergillus fumigatus CYP51A based on protein homology modeling” (2010).
Converted amounts (≈) assume the structure as drawn.

How the values were obtained:
[1] = system: Aspergillus fumigatus; experiment: Antimicrobial activity against itraconazole-resistant Aspergillus fumigatus clinical isolate expressing wild type cyp51A gene by CLSI method; format: functional
[2] = system: Aspergillus fumigatus; experiment: Antimicrobial activity against itraconazole-susceptible Aspergillus fumigatus clinical isolate expressing cyp51A F46Y, G89G, E427K, C454C mutant gene by CLSI method; format: functional
[3] = system: Aspergillus fumigatus; experiment: Antimicrobial activity against itraconazole-resistant Aspergillus fumigatus clinical isolate expressing cyp51A M220I mutant gene by CLSI method; format: functional
[4] = system: Aspergillus fumigatus; experiment: Antimicrobial activity against itraconazole-susceptible Aspergillus fumigatus clinical isolate expressing cyp51A E130D mutant gene by CLSI method; format: functional
[5] = system: Aspergillus fumigatus; experiment: Antimicrobial activity against itraconazole-resistant Aspergillus fumigatus clinical isolate expressing cyp51A M220V mutant gene by CLSI method; format: functional
[6] = system: Aspergillus fumigatus; experiment: Antimicrobial activity against itraconazole-susceptible Aspergillus fumigatus clinical isolate expressing cyp51A S400I mutant gene by CLSI method; format: functional
[7] = system: Aspergillus fumigatus; experiment: Antimicrobial activity against itraconazole-resistant Aspergillus fumigatus clinical isolate expressing cyp51A F46Y, G89G, M172V, N248T, D255E, L358L, E427K and C454C mutant gene by CLSI method; format: functional
[8] = system: Aspergillus fumigatus; experiment: Antimicrobial activity against itraconazole-susceptible Aspergillus fumigatus clinical isolate expressing cyp51A F46Y, G89G, M172V, L358L, E427K, C454C mutant gene by CLSI method; format: functional
[9] = system: Aspergillus fumigatus; experiment: Antimicrobial activity against itraconazole-resistant Aspergillus fumigatus clinical isolate expressing cyp51A L98H, L339L mutant gene by CLSI method; format: functional
[10] = system: Aspergillus fumigatus; experiment: Antimicrobial activity against itraconazole-resistant Aspergillus fumigatus clinical isolate expressing cyp51A G138C mutant gene by CLSI method; format: functional
[11] = system: Aspergillus fumigatus; experiment: Antimicrobial activity against itraconazole-resistant Aspergillus fumigatus clinical isolate expressing cyp51A L98H, A284A mutant gene by CLSI method; format: functional
[12] = system: Aspergillus fumigatus; experiment: Antimicrobial activity against itraconazole-susceptible Aspergillus fumigatus clinical isolate expressing cyp51A F46Y, M172V, L358L, E427K, C454C mutant gene by CLSI method; format: functional
[13] = system: Aspergillus fumigatus; experiment: Antimicrobial activity against itraconazole-resistant Aspergillus fumigatus clinical isolate expressing cyp51A L98H mutant gene by CLSI method; format: functional
[14] = system: Aspergillus fumigatus; experiment: Antimicrobial activity against itraconazole-susceptible Aspergillus fumigatus clinical isolate expressing cyp51A F46Y, G89G, M172V, N248T, D255E, L358L, E427K, C454C mutant gene by CLSI method; format: functional
[15] = system: Aspergillus fumigatus; experiment: Antimicrobial activity against itraconazole-resistant Aspergillus fumigatus clinical isolate expressing cyp51A L98H, F495I mutant gene by CLSI method; format: functional
[16] = system: Aspergillus fumigatus; experiment: Antimicrobial activity against itraconazole-resistant Aspergillus fumigatus clinical isolate expressing cyp51A M220R mutant gene by CLSI method; format: functional
[17] = system: Aspergillus fumigatus; experiment: Antimicrobial activity against itraconazole-susceptible Aspergillus fumigatus environmental isolate expressing cyp51A F46Y, G89G, M172V, L358L, C454C mutant gene by CLSI method
[18] = system: Aspergillus fumigatus; experiment: Antimicrobial activity against itraconazole-resistant Aspergillus fumigatus environmental isolate expressing cyp51A L98H, Q141H mutant gene by CLSI method
[19] = system: Aspergillus fumigatus; experiment: Antimicrobial activity against itraconazole-resistant Aspergillus fumigatus environmental isolate expressing cyp51A L98H, S52T mutant gene by CLSI method
[20] = system: Aspergillus fumigatus; experiment: Antimicrobial activity against itraconazole-susceptible Aspergillus fumigatus clinical isolate expressing cyp51A F46Y, G89G mutant gene by CLSI method; format: functional
[21] = system: Aspergillus fumigatus; experiment: Antimicrobial activity against itraconazole-resistant Aspergillus fumigatus clinical isolate expressing cyp51A L98H, S297T, F495 mutant gene by CLSI method; format: functional
[22] = system: Aspergillus fumigatus; experiment: Antimicrobial activity against itraconazole-resistant Aspergillus fumigatus clinical isolate expressing cyp51A L98H, Q88H mutant gene and by CLSI method; format: functional
[23] = system: Aspergillus fumigatus; experiment: Antimicrobial activity against itraconazole-susceptible Aspergillus fumigatus clinical isolate expressing cyp51A F46Y, G89G, M172V, N248T, D255E, E427K mutant gene by CLSI method; format: functional
[24] = system: Aspergillus fumigatus; experiment: Antimicrobial activity against itraconazole-susceptible Aspergillus fumigatus clinical isolate expressing wild type cyp51A gene by CLSI method; format: functional
[25] = system: Aspergillus fumigatus; experiment: Antimicrobial activity against itraconazole-susceptible Aspergillus fumigatus clinical isolate expressing cyp51A F46Y, G89G, L358L, E427K, C454C mutant gene by CLSI method; format: functional
[26] = system: Aspergillus fumigatus; experiment: Antimicrobial activity against itraconazole-resistant Aspergillus fumigatus clinical isolate expressing cyp51A G54E mutant gene by CLSI method; format: functional
[27] = system: Aspergillus fumigatus; experiment: Antimicrobial activity against itraconazole-resistant Aspergillus fumigatus clinical isolate expressing cyp51A L98H, N125I mutant gene by CLSI method; format: functional
[28] = system: Aspergillus fumigatus; experiment: Antimicrobial activity against itraconazole-susceptible Aspergillus fumigatus clinical isolate expressing cyp51A L252L mutant gene by CLSI method; format: functional
[29] = system: Aspergillus fumigatus; experiment: Antimicrobial activity against itraconazole-resistant Aspergillus fumigatus clinical isolate expressing cyp51A M220K mutant gene by CLSI method; format: functional
[30] = system: Aspergillus fumigatus; experiment: Antimicrobial activity against itraconazole-resistant Aspergillus fumigatus clinical isolate expressing cyp51A G54W mutant gene by CLSI method; format: functional

Row | SMILES | MIC [1] [µg/mL] | MIC [2] [µg/mL] | MIC [3] [µg/mL] | MIC [4] [µg/mL] | MIC [5] [µg/mL] | MIC [6] [µg/mL] | MIC [7] [µg/mL] | MIC [8] [µg/mL] | MIC [9] [µg/mL] | MIC [10] [µg/mL] | MIC [11] [µg/mL] | MIC [12] [µg/mL] | MIC [13] [µg/mL] | MIC [14] [µg/mL] | MIC [15] [µg/mL] | MIC [16] [µg/mL] | MIC [17] [µg/mL] | MIC [18] [µg/mL] | MIC [19] [µg/mL] | MIC [20] [µg/mL] | also measured
1 | CCC(C)n1ncn(-c2ccc(N3CCN(c4ccc(OCC5COC(Cn6cncn6)(c6ccc(Cl)cc6Cl)O5)cc4)CC3)cc2)c1=O (stereo not given) [ITRACONAZOLE] | 8 (≈ 11.3 µM) | 0.25 (≈ 0.354 µM) | > 16 | 0.5 (≈ 0.709 µM) | > 16 | 1 (≈ 1.42 µM) | > 16 | 0.125 (≈ 0.177 µM) | > 16 | > 16 | > 16 | 0.125 (≈ 0.177 µM) | 4 (≈ 5.67 µM) | 0.25 (≈ 0.354 µM) | > 16 | > 16 | 0.25 (≈ 0.354 µM) | > 16 | > 16 | 0.125 (≈ 0.177 µM) | MIC [21]: 16 µg/mL (≈ 22.7 µM); MIC [22]: > 16 µg/mL; MIC [23]: 0.25 µg/mL (≈ 0.354 µM); MIC [24]: 0.125 µg/mL (≈ 0.177 µM); MIC [25]: 0.25 µg/mL (≈ 0.354 µM); MIC [26]: > 16 µg/mL; MIC [27]: > 16 µg/mL; MIC [28]: 0.25 µg/mL (≈ 0.354 µM); MIC [29]: > 16 µg/mL; MIC [30]: > 16 µg/mL
2 | CC[C@@H]([C@H](C)O)n1ncn(-c2ccc(N3CCN(c4ccc(OC[C@@H]5CO[C@@](Cn6cncn6)(c6ccc(F)cc6F)C5)cc4)CC3)cc2)c1=O [POSACONAZOLE] | 0.125 (≈ 0.178 µM) | 0.063 (≈ 0.0899 µM) | 0.5 (≈ 0.713 µM) | 0.125 (≈ 0.178 µM) | 0.5 (≈ 0.713 µM) | 0.25 (≈ 0.357 µM) | 1 (≈ 1.43 µM) | 0.063 (≈ 0.0899 µM) | 1 (≈ 1.43 µM) | > 16 | 0.5 (≈ 0.713 µM) | 0.063 (≈ 0.0899 µM) | 0.25 (≈ 0.357 µM) | 0.063 (≈ 0.0899 µM) | 0.125 (≈ 0.178 µM) | 2 (≈ 2.85 µM) | 0.125 (≈ 0.178 µM) | 0.5 (≈ 0.713 µM) | 0.5 (≈ 0.713 µM) | 0.016 (≈ 0.0228 µM) | MIC [21]: 0.063 µg/mL (≈ 0.0899 µM); MIC [22]: 0.25 µg/mL (≈ 0.357 µM); MIC [23]: 0.063 µg/mL (≈ 0.0899 µM); MIC [24]: 0.031 µg/mL (≈ 0.0442 µM); MIC [25]: 0.063 µg/mL (≈ 0.0899 µM); MIC [26]: 0.25 µg/mL (≈ 0.357 µM); MIC [27]: 0.5 µg/mL (≈ 0.713 µM); MIC [28]: 0.5 µg/mL (≈ 0.713 µM); MIC [29]: > 16 µg/mL; MIC [30]: > 16 µg/mL
3 | C[C@@H](c1ncncc1F)[C@](O)(Cn1cncn1)c1ccc(F)cc1F [VORICONAZOLE] | 0.25 (≈ 0.716 µM) | 0.25 (≈ 0.716 µM) | 1 (≈ 2.86 µM) | 0.5 (≈ 1.43 µM) | 1 (≈ 2.86 µM) | 2 (≈ 5.73 µM) | > 16 | 0.5 (≈ 1.43 µM) | 8 (≈ 22.9 µM) | 8 (≈ 22.9 µM) | 4 (≈ 11.5 µM) | 1 (≈ 2.86 µM) | 2 (≈ 5.73 µM) | 0.25 (≈ 0.716 µM) | 2 (≈ 5.73 µM) | 2 (≈ 5.73 µM) | 1 (≈ 2.86 µM) | 4 (≈ 11.5 µM) | 4 (≈ 11.5 µM) | 0.5 (≈ 1.43 µM) | MIC [21]: 1 µg/mL (≈ 2.86 µM); MIC [22]: 8 µg/mL (≈ 22.9 µM); MIC [23]: 1 µg/mL (≈ 2.86 µM); MIC [24]: 0.5 µg/mL (≈ 1.43 µM); MIC [25]: 2 µg/mL (≈ 5.73 µM); MIC [26]: 0.25 µg/mL (≈ 0.716 µM); MIC [27]: 8 µg/mL (≈ 22.9 µM); MIC [28]: 1 µg/mL (≈ 2.86 µM); MIC [29]: 2 µg/mL (≈ 5.73 µM); MIC [30]: 0.25 µg/mL (≈ 0.716 µM)
